Earlier results on 10 compounds are cited in patent US20230323509A1, “Weak Acid Lixiviants for Recovery of Alkaline Earth Metals” (LIXIVIA, INC., priority 2020, published 2023).

Where [1] appears, read: acid listed without dissociation step index.

Where two headings read alike, the source gives them in different places.

As a reminder, the pKa is the pH at which an ionisable group is half protonated. On to `CC#CC(=O)O` [2-butynoic acid], for which, under setting [1], the pKa is given as 2.62.
Consider `CCC(=O)C(=O)O` [2-oxobutanoic acid], for which the pKa under setting [1] is on record as 2.5.
`CC(O)CC(=O)O` (stereo not shown) [3-hydoxybutanoic acid]: under setting [1], the pKa was 4.7.
With `CCOCC(=O)O` [ethoxyacetic acid], the pKa under setting [1] is reported as 3.65.
On to `O=C(O)CCCC(=O)O` [glutaric acid], for which the pKa (dissociation step (1)) is 4.32 and the pKa (dissociation step (2)) is reported as 5.42.
With `CC(C(=O)O)C(=O)O` [methylmalonic acid], the pKa (dissociation step (1)) is 3.07.
As to `CC(CC(=O)O)C(=O)O` (stereo not shown) [methylsuccinic acid], the pKa is, setting by setting: (dissociation step (1)) 4.13; (dissociation step (2)) 5.64.
For the compound `O=C(O)CC(=O)C(=O)O` [oxaloacetic acid], the pKa is listed as 2.55 (dissociation step (1)) and 4.37 (dissociation step (2)).
Turning to `CCCCC(=O)O` [pentanoic acid], under setting [1], the pKa is recorded as 4.83.
Regarding `O=c1[nH]c(=O)c2[nH]c(=O)[nH]c2[nH]1` [uric acid], the pKa under setting [1] is on record as 3.89.
